According to publication PMC10266688 (PLOS ONE, 2023):
Several values for one entry are separate records, joined by “and”; a condition that tells them apart may be missing. Equal entries are not always repeated.

What was measured:
[1] = Plasma Protein Binding (equilibrium dialysis); type: in vitro ADME, mouse
Protocol: The assay was performed in a multiple-use 96-well dialysis unit (HTD96b dialyzer). Each individual well unit consisted of 2 chambers separated by a vertically aligned dialysis membrane of predetermined pore size (MWCO 12–14 kDa). 120 μL of non-diluted plasma spiked with the compound (1 μM, final DMSO concentration 1%) was added to one chamber, and the same volume of PBS buffer pH 7.4 to the other chamber. The HTD96b dialyzer was covered with adhesive sealing film and incubated 5 h at 37°C while shaking at 100 rpm. For sample preparation, an aliquot of the contents of each chamber was mixed with the same volume of the blank opposite matrix. In order to define non-specific loss of the compound during this assay, a standard solution was created by mixing an aliquot of spiked plasma with blank buffer without dialysis. Two aliquots of the standard solution were incubated at 37°C, shaking at 100 rpm for 5 h (recovery samples). The other two aliquots were immediately diluted with acetonitrile and stored at 4°C until analysis (stability samples). All samples were diluted 5-fold with internal standard diluted in 100% methanol with subsequent plasma proteins sedimentation by centrifuging at 6000 rpm for 5 minutes. Supernatants were analyzed using LC-MS/MS. The percentage of plasma protein bound compound, recovery and stability were calculated using following equations.
Proteinbinding={(1−(arearatioinbuffer)/(arearatioinplasma)}.100%
Recovery={(arearatioinbuffer+peakareainplasma)/arearatioinrecoverysample}.100%
Stability={arearatioinrecoverysample/arearatioinstabilitysample}.100%

[2] = tested on: proteasome (4UbFL reporter); assay: In vivo 4UbFL proteasome reporter in electroporated leg muscle, CD1 mice; design: species or system mouse
Protocol: A patch of CD1 mouse leg was shaved of hair and 10 μg 4Ub-FL plasmid in 20 μL of PBS was injected into the quadriceps femoralis muscle followed immediately by injection of the 2 Needle Array to 5 mm depth encompassing the injection site and square wave EP (ElectroSquarePorator 833, BTX-2 Needle array 5mm gap, Harvard apparatus) delivered as eight pulses at 106V for 20 ms with 200 ms intervals. One day post-EP, mice were anesthetized with isoflurane, injected IP with luciferin (0.3 mg in 100 μL water) and optical imaging was performed to determine basal level luciferase expression. Images were acquired for 10 min with a Xenogen IVIS 200 (Caliper, Hopkinton, MA). Equally sized areas were analyzed using Living Image 2.20 software.
Two days later, luciferin was injected IP and the baseline enzymic activity of luciferase in the transduced muscle tissue was visualized as bioluminescence within this region of interest (ROI) using an IVIS imager. […] After 4h, 24h and 48h the mice were again injected with luciferin, imaged and bioluminescence was quantified (Fig 5B).
A) ES2 cells stably transduced with the 4UbFL reporter plasmid were treated with compounds at indicated doses for 4 h. The cells were then washed, lysed and their luminescence measured by a luminometer after addition of luciferin. B) Female CD1 mice electroporated with 4UbFL plasmid in their leg muscle. After 48 h, the mice were injected with luciferin, imaged by IVIS for their basal bioluminescence and randomized into two groups of five. […] D) Up284 tissue distribution. […] Up284 levels in tissue samples were analyzed by HPLC. E) Up284 pharmacokinetics. […] Blood was collected at indicated time points thereafter and analyzed for Up284 levels by HPLC.

[3] = mouse plasma, 1.0 µM, individual incubations

SMILES: N#Cc1ccc(/C=C2/C(=O)/C(=C/c3ccc(C#N)cc3)C23CCNCC3)cc1 [Up284]
- % of bound compound, mean ([1]; mouse plasma, 1.0 µM): 98%
- Stability, % ([1]; mouse plasma, 1.0 µM, 5 h 37°C): 109%
- % of bound compound [1, 3]: 98% and 97%
- Recovery, % [1, 3]: 101%
- recovery at 5 h, 1 µM ([1]; mouse, non-diluted plasma, pH 7.4, mouse plasma, individual incubations): 98%
- 4UbFL reporter stabilization in muscle, PO ([2]; Up284 PO once 40mg/kg vs ixazomib 10 mg/kg): better stabilized the reporter than ixazomib
- duration of enhanced 4UbFL bioluminescence ([2]; single IP dose 40 mg/kg): > 48 h
- 4UbFL bioluminescence in leg muscle ([2]; single IP dose 40 mg/kg, 4h, 24h and 48h): significantly enhanced bioluminescence levels
